The values that follow come from US8173133B2, “Acyl pseudodipeptides which carry a functionalized auxiliary arm” (OM Pharma, priority 1999, dated 2012).

The test system of assay [1] is predendritic cells (DC-6). Nature of the assay: dendritic cell differentiation test: FITC-Dextran take-up. It is filed as cell-based, human. The note with it: for Dextran % CD: products redissolved in pyrogen-free water, % of dendritic cells; for Dextran Fluorescence: mean fluorescence value; for concentration inducing differentiation of DC-6 cells into DC-9 cells: summary of phagocytosis and marker data. On the procedure: The ability of products of the invention to induce maturation of predendritic cells into dendritic cells was assessed. The following parameters were measured: FITC-Dextran conjugate take-up and expression of CD83, CD86 surface markers.
Mononucleated cells of peripheral blood are isolated from buffy coats of healthy donors. Purified monocytes by adherence selection are resuspended in RPMI-1640 medium containing 10% of foetal calf serum (FCS), GM-CSF and IL-4 (10 ng/ml) at a density of 1×10^6 cells/ml. Cells are divided into Petri Dishes (10×10^6 cells per dish) and cultured for 6 days with a change to fresh medium after 3 days. Cells thus obtained are called predendritic cells (DC-6). Maturation of predendritic cells into mature dendritic cells is achieved by incubating cells with diluted solutions of the products or LPS (positive control) for 3 more days (see product section below). At day 9 (DC-9), cells are harvested and analyzed for different indicators of dendritic cell maturation: assessment of CD83, CD86 surface marker expression as well as of their ability to take up FITC-Dextran conjugate. All these parameters are analyzed by an EPICS-XL-MCL model FACS (Coulter Immunology, Hialeah, […]).
Expression of surface markers is given as % of mean fluorescence of LPS-activated cells (positive control); FITC-Dextran conjugate take-up rate is calculated based on take-up of cells maintained in basic medium and is expressed in %.
Solutions are incubated at 37° C. for 20 minutes, subjected to vigorous stirring during 3 minutes and then diluted to 100 μg/ml in RPMI-1640 culture medium and used in diluted state at concentrations ranging from 10 μg/ml to 0.03 μg/ml. Reference Product: E. coli lipopolysaccharide (LPS, DIFCO, Detroit, Mich., U.S.A.), as a 5 mg/ml stock solution in PBS. An intermediate 100 μg/ml solution is prepared in RPMI 1640 culture medium. Concentrations of dilute solutions being tested range from 1 μg/ml to 0.03 μg/ml.
In another series of experiments, all acyl dipeptide-like compounds were freeze-dried and directly redissolved into pyrogen-free water. Different products as well as LPS control are tested at a concentration of 10 μg/ml. Results are given as % of dendritic cells and mean fluorescence value for dextran phagocytosis or CD86 surface marker expression.
Immature dendritic cells (DC-6) resulting from monocyte differentiation, through the joint action of GM-CSF and IL-4, are able to incorporate FITC-Dextran conjugate. During the maturation process, cells lose their ability to incorporate the FITC-Dextran conjugate. Assays are conducted upon reaching the DC-9 differentiation stage.

In a further assay the test system is bone marrow stem cells. Nature of the assay: bone marrow stem cell proliferation (XTT). It is filed as cell-based, C57/BL6 mice. The conditions noted are these: for Max amplitude: 7 days, XTT 492 nm; for Min amplitude: blank ± 3× standard deviation; for Max concentration: concentration at maximum amplitude; for EC50 conc: concentration corresponding to 50% of maximum amplitude; for Min concentration: lowest concentration inducing a significant proliferation. An excerpt:
6-week old male C57/BL6 mice are killed by CO2 inhalation. The hip, femur, tibia and hind leg bones are removed. The marrow is extracted from the bone lumen by injecting Dulbecco's Modified Eagle Medium (DH medium) from the end portions which had been excised. The stem cells are washed and suspended again in DH medium supplemented with 20% foetal calf serum (FCS) The cell concentration is adjusted to 500000 cells/ml.
Products previously dissolved in DH medium supplemented with 20% FCS, amino acids and antibiotics are serially diluted directly into a microtiter plate. The products are tested in triplicate and each microtiter plate includes a negative control containing plain medium. The final volume in each well is 100 μl.
100 μl of the cell suspension are added to diluted solutions of products and the cells are incubated for 7 days in an incubator at 37° C., under 8% CO2 and a moisture saturated atmosphere. Cell proliferation is determined by measuring the […] of a chromogenic substrate XTT (2,3-bis[2-methoxy-4-nitro-5-sulphophenyl]-2H-tetrazolium-5-carboxanilide) in mitochondria of viable cells.
At the end of the incubation period, 50 μl of the XTT substrate solution (1 mg/ml XTT+0.008 mg/ml phenazine methosulfate) are added to each well. After an 8 hour incubation period at 37° C. under 8% CO2 in a moisture saturated incubator, the microtiter plates are read with a spectrophotometer at 492 nm against a reference sample at 690 nm.
Results are expressed as mean value±standard deviation and plotted as a dose versus response curve. Values for a negative control composed of DH medium (mean±standard deviation) are also graphically shown.
From this dose versus response curve, 3 curve variables are computed:
Max: maximum curve amplitude and corresponding concentration
EC50: concentration corresponding to 50% of maximum amplitude
Min: lowest concentration inducing a significant proliferation corresponding to the blank±3× standard deviation value
Concentration values corresponding to EC50 and Min are determined from line segments joining different points on the curve.
If the curve has no plateau phase but an ascending configuration for the highest concentration being tested, a “>” sign is shown before Max and EC50 values.

SMILES strings stand for the structures. In brackets after ≈: the same amount, converted by molar mass.

On to `CCCCCCCCCCCC(=O)O[C@H](CCCCCCCCCCC)CC(=O)N[C@H](CC(=O)N[C@@H](CC(=O)O)C(=O)O)C(=O)NCCC[C@H](CO)NC(=O)C[C@H](O)CCCCCCCCCCC` [OM-197-Asp, N—[(R)-3-dodecanoyloxytetradecanoyl]-D-aspartic acid, α-N-{(4R)-5-hydroxy-4-[(R)-3-hydroxytetradecanoylamino]-pentyl}Amide β-N-[(1S)-1,2-Dicarboxyethyl]Amide], for which, in assay [1] (10 μg/ml), the “Dextran % CD” value is reported as 26.4% and the “Dextran Fluorescence” value is given as 2.4. For the same compound, in the assay on bone marrow stem cells, the Max amplitude is recorded as 1.22 O.D, the Min amplitude was found to be 0.80 O.D, the Max concentration was 25 µg/mL and the EC50 conc stood at 5.0 µg/mL (≈ 5.08 µM). This compound yielded a Min concentration with bone marrow stem cells of 1.89 µg/mL.

In the case of `CCCCCCCCCCCC(=O)O[C@H](CCCCCCCCCCC)CC(=O)N[C@H](CC(=O)O)C(=O)NCCC[C@H](COC(=O)CCCCCNC(=O)CCC(=O)OC[C@@H]1C=C[C@H](n2cc(C)c(=O)[nH]c2=O)O1)NC(=O)C[C@H](O)CCCCCCCCCCC` [OM-197-MC-AC-Succ-d4T], in assay [1] (10 μg/ml), the “Dextran % CD” value came out at 11.6% and the “Dextran Fluorescence” value is listed as 0.5. In the assay on bone marrow stem cells, this compound had a Max amplitude of 1.40 O.D, a Min amplitude of 0.80 O.D, a Max concentration of 50 µg/mL and an EC50 conc of 25.4 µg/mL (≈ 19.7 µM). The Min concentration in the assay with bone marrow stem cells amounted to 2.81 µg/mL.

With `CCCCCCCCCCCC(=O)O[C@H](CCCCCCCCCCC)CC(=O)N[C@H](CC(=O)O)C(=O)NCCC[C@H](COC(=O)CCCCCNC(=O)CCC(=O)OC[C@H]1O[C@@H](n2cc(C)c(=O)[nH]c2=O)C[C@@H]1N=[N+]=[N-])NC(=O)C[C@H](O)CCCCCCCCCCC` [OM-197-MC-AC-Succ-AZT], in assay [1] (10 μg/ml), the “ability to induce differentiation of predendritic cells into dendritic cells” value is “significant ability to induce differentiation into dendritic cells”, the “Dextran % CD” value turned out to be 62.2% and the “Dextran Fluorescence” value came to 4.8. In the assay on bone marrow stem cells, this compound gave a Max amplitude of 1.08 O.D, a Min amplitude of 0.80 O.D, a Max concentration of 12.5 µg/mL and an EC50 conc of 3.3 µg/mL (≈ 2.48 µM). Besides, the Min concentration in the assay on bone marrow stem cells was 2.11 µg/mL.

As to `CCCCCCCCCCCC(=O)O[C@H](CCCCCCCCCCC)CC(=O)N[C@H](CC(=O)NCCCN)C(=O)NCCC[C@H](CO)NC(=O)C[C@H](O)CCCCCCCCCCC` [OM-197-AP, N—[(R)-3-dodecanoyloxytetradecanoyl]-D-aspartic acid, α-N-{(4R)-5-hydroxy-4-[(R)-3-hydroxy-tetradecanoylamino]pentyl}-amide β-N-(3-aminopropyl)amide], in assay [1] (10 μg/ml), the “Dextran % CD” value is given as 56.1% and the “Dextran Fluorescence” value worked out at 4.4. In the assay with bone marrow stem cells, this compound gave a Max amplitude of 1.49 O.D, a Min amplitude of 0.80 O.D, a Max concentration of 25 µg/mL and an EC50 conc of 2.2 µg/mL (≈ 2.38 µM). The Min concentration in the assay on bone marrow stem cells was 0.41 µg/mL.

In the case of `CCCCCCCCCCCC(=O)O[C@H](CCCCCCCCCCC)CC(=O)N[C@H](CC(=O)N[C@@H](CCCCN)C(=O)O)C(=O)NCCC[C@H](CO)NC(=O)C[C@H](O)CCCCCCCCCCC` [OM-197-Lys], in assay [1] (10 μg/ml), the “Dextran % CD” value was 12.1% and the “Dextran Fluorescence” value was determined as 0.5. Moreover, in the assay on bone marrow stem cells, the Max amplitude is on record as 1.56 O.D, the Min amplitude is on record as less than 0.86 O.D, the Max concentration is 25 µg/mL and the EC50 conc was found to be 3.3 µg/mL (≈ 3.31 µM). In the assay with bone marrow stem cells, this compound registered a Min concentration of less than 0.39 µg/mL.

In the case of `CCCCCCCCCCCC(=O)O[C@H](CCCCCCCCCCC)CC(=O)NC(CCOP(=O)(O)O)C(=O)NCCC[C@H](COC(=O)CCCCCN)NC(=O)C[C@H](O)CCCCCCCCCCC` (mixture of isomers) [OM-197-MP-AC (R/S, R), (3RS,9R)-3-[(R)-3-dodecanoyloxytetradecanoylamino]-4oxo-5-aza-9-[(R)-3-hydroxytetradecanoylamino]-decan-10-ol 1-dihydrogen-phosphate(6-aminohexanoate)], in assay [1] (10 μg/ml), the “Dextran % CD” value stood at 84.6% and the “Dextran Fluorescence” value is reported as 6.3. Moreover, the “phagocytic capacity retained (% incorporation of FITC-Dextran of unchallenged cells)” value in assay [1] (DC-9 stage, FIG. 74) worked out at 22%. Further, the “concentration required to induce full decrease of Dextran take-up” value in assay [1] (FIG. 74) is “at least 1 μg/ml”. For the same compound, the “concentration inducing differentiation of DC-6 cells into DC-9 cells” value in assay [1] is 0.1 µg/mL. In the assay on bone marrow stem cells, this compound showed a Max amplitude of 2.12 O.D, a Min amplitude of 0.80 O.D, a Max concentration of 25 µg/mL and an EC50 conc of 3.1 µg/mL (≈ 2.96 µM). Besides, the Min concentration with bone marrow stem cells was determined as 0.71 µg/mL.

`CCCCCCCCCCCC(=O)O[C@H](CCCCCCCCCCC)CC(=O)N[C@H](CC(=O)N[C@@H](CCCCN)C(=O)O)C(=O)NCCC[C@H](COC(=O)CCCCCN)NC(=O)C[C@H](O)CCCCCCCCCCC` [OM-197-Lys-AC]: in assay [1] (10 μg/ml), the “Dextran % CD” value amounted to 92.2% and the “Dextran Fluorescence” value is reported as 6.8. In the assay with bone marrow stem cells, the Max amplitude is more than 2.02 O.D, the Min amplitude was 0.80 O.D, the Max concentration is more than 50 µg/mL and the EC50 conc is more than 14.6 µg/mL. In the assay on bone marrow stem cells, this compound came in with a Min concentration of 0.90 µg/mL.

On to `CCCCCCCCCCCC(=O)O[C@H](CCCCCCCCCCC)CC(=O)N[C@H](CC(=O)O)C(=O)NCCC[C@H](CO)NC(=O)C[C@H](O)CCCCCCCCCCC` [OM-197-MC, N—[(R)-3-dodecanoyloxytetradecanoyl]-D-aspartic acid, α-N-{(4R)-5-hydroxy-4[(R)-3-hydroxytetradecanoylamino]-pentyl}amide], for which the “decrease of phagocytic capacity” value in assay [1] (10 μg/ml) amounted to 22%. The “effect on phagocytosis” value in assay [1] (concentrations lower than 3 μg/ml) is given as “no effect on phagocytosis”. The “concentration inducing differentiation of DC-6 cells into DC-9 cells” value in assay [1] is recorded as “greater than 1 μg/ml”. In the assay on bone marrow stem cells, this compound returned a Max amplitude of 1.75 O.D, a Min amplitude of 0.80 O.D, a Max concentration of 64 µg/mL and an EC50 conc of 19.4 µg/mL (≈ 22.3 µM). In the assay on bone marrow stem cells, this compound registered a Min concentration of 1.25 µg/mL.

In the case of `CCCCCCCCCCCC(=O)O[C@H](CCCCCCCCCCC)CC(=O)N[C@H](CC(=O)O)C(=O)NCCC[C@H](COC(=O)CCCCCN)NC(=O)C[C@H](O)CCCCCCCCCCC` [OM-197-MC-AC, N—[(R)-3-dodecanoyloxytetradecanoyl]-D-aspartic acid, α-N-{(4R)-5-(6-aminohexanoyloxy)-4-[(R)-3-hydroxytetradecanoylamino]pentyl}amide], in assay [1] (10 μg/ml), the “Dextran % CD” value is recorded as 68.3% and the “Dextran Fluorescence” value was found to be 5.2. Also, in the assay on bone marrow stem cells, the Max amplitude is 1.62 O.D, the Min amplitude is recorded as 0.80 O.D, the Max concentration stood at 50 µg/mL and the EC50 conc amounted to 31.0 µg/mL (≈ 31.6 µM). The compound further yielded a Min concentration in the assay with bone marrow stem cells of 0.92 µg/mL.
